One assay concerns the target T1, wild-type rPepT1 (Oryctolagus cuniculus, UniProt P36836).
T1 construct: expressed in transfected cells; host or cells: Xenopus laevis oocytes injected with cRNA
T1 sequence (P36836 1-707): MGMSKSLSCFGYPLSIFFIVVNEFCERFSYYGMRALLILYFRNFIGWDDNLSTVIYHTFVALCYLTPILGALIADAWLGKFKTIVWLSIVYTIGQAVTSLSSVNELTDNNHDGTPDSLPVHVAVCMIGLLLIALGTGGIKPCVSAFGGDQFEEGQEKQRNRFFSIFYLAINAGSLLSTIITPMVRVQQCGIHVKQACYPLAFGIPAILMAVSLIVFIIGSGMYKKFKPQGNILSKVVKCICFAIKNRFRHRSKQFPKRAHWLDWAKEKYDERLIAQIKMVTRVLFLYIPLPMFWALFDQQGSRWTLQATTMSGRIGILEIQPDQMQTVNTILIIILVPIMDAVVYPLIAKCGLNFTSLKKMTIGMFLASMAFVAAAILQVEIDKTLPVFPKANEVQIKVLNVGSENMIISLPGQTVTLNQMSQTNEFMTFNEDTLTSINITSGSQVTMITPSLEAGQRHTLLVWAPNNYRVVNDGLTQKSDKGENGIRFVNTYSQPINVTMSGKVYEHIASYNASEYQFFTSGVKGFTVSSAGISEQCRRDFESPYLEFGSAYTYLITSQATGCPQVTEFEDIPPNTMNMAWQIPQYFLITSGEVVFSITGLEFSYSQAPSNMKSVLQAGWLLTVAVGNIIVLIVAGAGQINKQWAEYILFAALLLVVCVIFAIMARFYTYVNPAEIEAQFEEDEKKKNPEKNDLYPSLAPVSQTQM
Put plainly: Uptake of tracer [3H]-D-Phe-L-Gln into Xenopus oocytes. It is filed as cell-based, rabbit. To be noted: 0.4 μM tracer; pHout 5.5; 1 h; non-injected control subtracted. The protocol: (§1) rPepT1 constructs were linearised with XbaI (New England Biolabs, UK) and cRNA generated by in vitro transcription (T7 mMessage mMachine, Ambion, Cambridgeshire, UK). Xenopus laevis oocytes were obtained under MS222 anaesthesia (0.2%, w/v) in accordance with the UK Animals (Scientific Procedures) Act, 1986, and maintained at 18 °C in modified Barth's medium (88 mM NaCl, 1 mM KCl, 0.82 mM MgSO4, 2.4 mM NaHCO3, 0.42 mM CaCl2, 10 mM Hepes, 5 mM sodium pyruvate, 50 μg ml^−1 gentamicin (Fluka, Poole, UK), adjusted to pH 7.6 with 1 M NaOH). Transport measurements were performed at least 72 h after micro-injection of oocytes with 27nl cRNA (1 μg/μl), with medium changed daily.
Uptake of [^3H]-D-Phe-L-Gln (17.4 Ci/mmole, custom synthesised, Cambridge Research Biochemicals, Stockton-on-Tees, UK) was performed as previously described ([Meredith, 2004]). Briefly, 5 oocytes were incubated in 100 μl of uptake medium (95 mM NaCl, 2 mM KCl, 1 mM CaCl2, 0.42 mM MgCl2, 10 mM Tris/Hepes pH 7.4 or Tris/Mes pH 5.5) with tracer (0.4 μM) [^3H]-D-Phe-L-Gln. After incubation, the oocytes were washed sequentially five times in 1 ml of ice-cold 120 mM NaCl solution, lysed individually with 100 μl 2% (w/v) SDS and liquid scintillation counted. As a control non-injected oocytes were also incubated in uptake medium with D-Phe-L-Gln as above.

For the next assay, the target named is T2, Y91F-rPepT1 (Oryctolagus cuniculus, UniProt P36836, Y91F).
T2 construct: expressed in transfected cells; host or cells: Xenopus laevis oocytes injected with cRNA
T2 sequence (P36836 1-707 Y91F): T1 sequence (P36836 1-707) with Y91F
The description is as above. The class given is cell-based, rabbit. To be noted: corrected for surface expression; versus wild-type. The protocol:
as §1
Uptake of [^3H]-D-Phe-L-Gln (17.4 Ci/mmole, custom synthesised, Cambridge Research Biochemicals, Stockton-on-Tees, UK) was performed as previously described ([Meredith, 2004]). […] After incubation, the oocytes were washed sequentially five times in 1 ml of ice-cold 120 mM NaCl solution, lysed individually with 100 μl 2% (w/v) SDS and liquid scintillation counted. […]
Luminometry assays were performed as described previously ([Panitsas et al., 2006]). […] Luminometer (Turner-Designs 20/20, Promega) readings for at least 15 oocytes per data point were taken immediately.

Changes are numbered by the printed parent chain.

As for [^3H]-D-Phe-L-Gln, on wild-type rPepT1, the uptake is listed as 342 ± 37 fmol peptide/(oocyte h). For the same substance, at Y91F-rPepT1, the “decrease in the rate of transport per protein molecule” value turned out to be 40%.

The values are drawn from publication PMC3510438, “The transmembrane tyrosines Y56, Y91 and Y167 play important roles in determining the affinity and transport rate of the rabbit proton-coupled peptide transporter PepT1” (The International Journal of Biochemistry & Cell Biology, 2009).
